# Measurements published in patent US20260144776A1, “COMBINATION THERAPY FOR A DOPAMINE AGONIST” (priority 2017, published 2026).
# Columns and labels:
# [1] = tested on: humans; details: in vivo
# Experimental: The study was single center, single-blind study.
# Once a subject had reached his/her first intolerable dose (FID-1), upward dose escalation was discontinued.
# All other provisions of the protocol remained unchanged. Assessments were the same as those planned for the dose escalation day.
# On each study day, subjects were followed up for up to 8 hours following drug administration for AEs, vital signs, ECGs. In addition, a laboratory panel was taken at screening and at the end of the study.
# [2] = tested on: animal behavior simulating symptoms of depression; details: high doses of pramipexole; cited from earlier work
# [3] = tested on: depressive symptoms in patients with PD; details: 12 weeks, 296 PD patients, pramipexole 0.125 to 1.0 mg/kg; placebo 4.0 (SE 0.5), p=0.01; cited from earlier work
# [4] = tested on: patients with a DSM-III-R diagnosis of major depression; details: pramipexole 5.0 mg group, cited from earlier work
smiles,measurement,setting,value
"CCCN[C@H]1CCc2nc(N)sc2C1 [Pramipexole, (S)-6-propylamino-4,5,6,7-tetrahydro-1,3-benzothiazole-2-amine]",dose limiting toxicity,[1],gastro-intestinal adverse events
same,activity in tests of animal behavior simulating symptoms of depression,[2],active
same,BDI scores decreased by an adjusted,[3],5.9 (SE 0.5)
same,patients who discontinued treatment prematurely,[4]; mainly because of adverse events,57.6%
same,improvement at week 8 (change from baseline),"[4]; best improvement, no p value against placebo because of drop-out rate",−15.00
same,patients who reported nausea,[4],76%
same,patients who reported vomiting,[4],39%
